This note sets out measurements from patent publication US5789434A, “Derivatives of substituted 4-biarylbutyric acid as matrix metalloprotease inhibitors” (priority 1995, dated 1998).

Each structure is given as a SMILES string.

What all share (type): biochemical
The target of one assay is T1, MMP-2 (Homo sapiens, UniProt P08253).
T1 sequence (P08253 110-660): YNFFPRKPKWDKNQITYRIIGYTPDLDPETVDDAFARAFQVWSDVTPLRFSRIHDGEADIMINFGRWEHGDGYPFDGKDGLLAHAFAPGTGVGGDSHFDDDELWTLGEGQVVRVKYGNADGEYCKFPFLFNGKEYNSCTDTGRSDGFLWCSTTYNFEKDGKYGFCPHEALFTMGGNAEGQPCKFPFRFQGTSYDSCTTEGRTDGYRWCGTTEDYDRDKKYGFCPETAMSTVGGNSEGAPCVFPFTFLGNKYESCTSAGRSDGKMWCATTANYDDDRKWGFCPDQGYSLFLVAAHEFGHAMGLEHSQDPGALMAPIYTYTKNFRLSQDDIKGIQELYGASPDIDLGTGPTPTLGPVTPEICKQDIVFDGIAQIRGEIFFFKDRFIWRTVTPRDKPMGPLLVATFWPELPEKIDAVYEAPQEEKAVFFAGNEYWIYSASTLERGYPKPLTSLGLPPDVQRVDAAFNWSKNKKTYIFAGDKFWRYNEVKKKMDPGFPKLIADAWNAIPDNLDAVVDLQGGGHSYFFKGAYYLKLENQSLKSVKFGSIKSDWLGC
The experiment in a line: Automated MMP Profiling Assay, MMP-2 fluorogenic. The settings on record: for IC50: 96-well automated, P218, read-out: MMP-2 Fluorogenic IC50 (profiling).

The target of assay [1] is T2, MMP-9 (Homo sapiens, UniProt P14780).
T2 construct: from tissue; host or cells: human polymorphonuclear leukocytes (PMN) from whole blood (New York Blood Center), PMA-stimulated supernatant
The experiment in a line: Automated MMP Profiling Assay, MMP-9 fluorogenic. The settings on record: for IC50: 96-well automated, P218. Here is the method:
Briefly, polymorphonuclear leukocytes (PMN) preparations were isolated as described above from 3 or more units of freshly drawn whole blood obtained from the New York Blood Center (New York, N.Y.). Cells were resuspended in phosphate buffered saline (PBS) containing 100 ng/ml phorbol myristate acetate (PMA) in the presence of 50 mM diisopropylfluorophospate (DFP), 1 μg/ml leupeptin and aprotinin, and 1 mg/ml catalase for 1 hr at 37° C. Supernatants were collected by centrifugation (300×g) and the samples were frozen at -70° C. All chromatographic methods were performed at 4° C. Thawed samples were concentrated 5-fold using an Amicon chamber equipped with a YM-10 membrane. The concentrate was pressure dialyzed against 0.02M Tris-HCl, 0.1M NaCl, 1 mM CaCl2, 1 μM ZnCl2, 0.001% Brij-35, 0.02% sodium azide (NaN3), pH 7.5 and applied to DEAE ion exchange chromatography resin which was previously equilibrated with the same buffer at a flow rate of 0.4 ml/min. The column was extensively washed with the same buffer and gelatinase was eluted as 4 ml fractions from the column with 0.02M Tris-HCl, 0.5M NaCl, 1 mM CaCl2, 1 μM ZnCl2, 0.001% Brij-35, 0.02% NaN3, pH 7.5. Gelatinase containing fractions were observed by gelatin zymography (see below), loaded onto a gelatin agarose affinity resin and washed with the same buffer. Gelatinase activity was eluted at a flow rate of 1 ml/min from the column as 1 ml fractions with 0.02M Tris-HCl, 1M NaCl, 1 mM CaCl2, 1 μM ZnCl2, 0.001% Brij-35, 0.02% NaN3, pH 7.5 containing 10% dimethyl sulfoxide (DMSO). The fractions containing gelatinase activity were pooled and dialyzed against 0.005M Tris-HCl, 5 mM NaCl, 0.5 mM CaCl2, 0.1 μM ZnCl2, 0.001% Brij-35, pH 7.4. The protein content associated with material was determined with a micro-BCA assay (Pierce, Rockford, Ill.), lyophilized and reconstituted to a desired working concentration (100 μg/ml).
This assay was run with a protocol analogous to that reported for MMP-3 inhibition using the synthetic peptide P218 and each of the three enzymes and measuring quenched fluorescence. This assay with each invention compound was run with the three enzymes MMP-3, MMP-9 and MMP-2 in parallel as adapted for a 96-well microtitre plate using a Hamilton A® workstation.

A further assay concerns the target T3, MMP-3 (Homo sapiens, UniProt P08254).
T3 construct: Truncated Prostromelysin-257 was expressed in a soluble form in E.coli; made in house; host or cells: E. coli
The assay can be described thus: Automated MMP Profiling Assay, MMP-3 fluorogenic. Conditions: for IC50: 96-well automated, P218. The text has this:
This assay with each invention compound was run with the three enzymes MMP-3, MMP-9 and MMP-2 in parallel as adapted for a 96-well microtitre plate using a Hamilton A® workstation.

Assay [2] addresses T2, MMP-9. The experiment in a line: Thiopeptilide MMP-9 Inhibition Assay. The settings on record: pH 6.5; x (n) = average of n determinations; read-out: MMP-9: Thiopep. IC50.

T3 sequence (P08254 100-274 limits assumed): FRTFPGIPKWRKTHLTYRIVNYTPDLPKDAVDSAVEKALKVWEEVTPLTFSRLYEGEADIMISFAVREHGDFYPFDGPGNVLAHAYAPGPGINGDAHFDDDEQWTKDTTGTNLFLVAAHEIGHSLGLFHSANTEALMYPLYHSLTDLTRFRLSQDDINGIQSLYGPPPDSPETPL
T2 sequence (P14780 107-707 limits assumed): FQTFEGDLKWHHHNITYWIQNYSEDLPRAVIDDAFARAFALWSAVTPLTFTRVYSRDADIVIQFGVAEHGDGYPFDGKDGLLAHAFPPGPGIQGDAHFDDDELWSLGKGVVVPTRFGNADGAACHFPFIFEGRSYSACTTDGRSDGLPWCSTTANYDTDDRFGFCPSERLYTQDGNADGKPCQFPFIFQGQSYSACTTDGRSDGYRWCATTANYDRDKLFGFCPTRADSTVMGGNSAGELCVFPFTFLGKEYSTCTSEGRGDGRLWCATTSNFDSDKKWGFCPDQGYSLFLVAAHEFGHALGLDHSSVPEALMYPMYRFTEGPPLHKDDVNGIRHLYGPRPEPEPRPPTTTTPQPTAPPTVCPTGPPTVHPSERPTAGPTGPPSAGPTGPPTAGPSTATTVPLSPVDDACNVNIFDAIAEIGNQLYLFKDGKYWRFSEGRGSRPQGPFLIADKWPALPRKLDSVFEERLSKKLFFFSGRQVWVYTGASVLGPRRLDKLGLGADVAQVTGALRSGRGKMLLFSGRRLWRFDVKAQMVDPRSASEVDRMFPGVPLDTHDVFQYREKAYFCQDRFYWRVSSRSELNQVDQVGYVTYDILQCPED

As usually defined, the IC50 is the concentration that gives 50% inhibition. Turning to `O=C(CC(CCCc1ccccc1)C(=O)O)c1ccc(-c2ccc(OCc3ccncc3)cc2)cc1` (stereo not drawn) [Example 111, [1,1'-Biphenyl]-4-butanoic acid, γ-oxo-α-(3-phenylpropyl)-4'-(4-pyridinylmethoxy)-], the values for the half-maximal inhibitory concentration (IC50) on MMP-2, against MMP-9 [1] and against MMP-3 were 0.0039 µM, 4.73 µM and 0.018 µM, respectively.
For `O=C(O)[C@@H]1[C@@H](C(=O)c2ccc(-c3ccc(Cl)cc3)cc2)CC[C@H]1SCc1ccccc1` (relative stereo) [Example 441, Cyclopentanecarboxylic acid, 2-[(4'-chloro[1,1'-biphenyl]-4-yl)carbonyl]-5-[(phenylmethyl)thio]-, (1α,2β,5β)-], in that order: 0.027 µM, 0.149 µM and 0.038 µM.
As usually defined, the inhibition is the drop in the measured response relative to a control, in per cent. Read a low inhibition as a response near the control. `CCCCCOc1ccc(-c2ccc(C(=O)C3CCC=C3C(=O)O)cc2)cc1` (centres unmarked) [Example 442, 1-Cyclopentene-1-carboxylic acid, 5-[[4'-(pentyloxy)[1,1'-biphenyl]-4-yl]carbonyl]-]: the IC50 at MMP-2 was 0.962 µM; on MMP-3 it was 2.76 µM. The compound also displayed an inhibition at 5 µM against MMP-9 [1] of 40%.
On to `CCCCCOc1ccc(-c2ccc(C(=O)[C@H]3CC[C@@H](Sc4ccccc4)[C@@H]3C(=O)O)cc2)cc1` (single isomer, unassigned) [Example 320, Cyclopentanecarboxylic acid, 2-[[4'-(pentyloxy)[1,1'-biphenyl]-4-yl]carbonyl]-5-(phenylthio)-, (1α,2β,5β)-(-)-], for which the inhibition at 5 µM on MMP-2 came out at 24%; on MMP-9 [1] it was 6%; against MMP-3, 6%.
Turning to `CCCCCCc1ccc(-c2ccc(CCC(CCCc3ccccc3)C(=O)O)cc2)cc1` (stereo not drawn) [Example 357, [1,1'-Biphenyl]-4-butanoic acid, 4'-hexyl-α-(3-phenylpropyl)-], the inhibition at 5 µM was found to be 38% at MMP-2, 4% against MMP-9 [1] and 15% at MMP-3.
Regarding `O=C(CC(CCN1C(=O)c2cc3c(cc2C1=O)OCO3)C(=O)O)c1ccc(-c2ccc(Cl)cc2)cc1` (stereo not drawn) [Example 419, 6H-1,3-Dioxolo[4,5-.function.]isoindole-6-butanoic acid, α-[2-(4'-chloro[1,1'-biphenyl]-4-yl)-2-oxoethyl]-5,7-dihydro-5,7-dioxo-], the IC50 on MMP-2 is 0.031 µM; on MMP-9 [1], 0.00085 µM; against MMP-3, 0.0067 µM.
`O=C(c1ccc(-c2ccc(Cl)cc2)cc1)[C@@H]1CCN(C(=O)OCc2ccccc2)[C@H]1C(=O)O` [Example 167, 1,2-Pyrrolidinedicarboxylic acid, 3-[(4'-chloro[1,1'-biphenyl]-4-yl)carbonyl],1-(phneylmethyl) ester, (2R-trans)-]: the inhibition at 5 µM worked out at 31% on MMP-2, 23% against MMP-9 [1] and 18% against MMP-3.
Consider `COCOC[C@@H]1CC[C@H](C(=O)c2ccc(-c3ccc(Cl)cc3)cc2)[C@H]1C(=O)O` (relative stereo) [Example 364], for which the figures for the IC50 on MMP-2, at MMP-9 [1] and at MMP-3 were 0.04 µM, 0.18 µM and 0.046 µM, respectively.
Regarding `CC(C)(C)CC(=O)Nc1ccc(-c2ccc(C(=O)CC(CCc3ccccc3)C(=O)O)cc2)cc1` (stereo not drawn) [Example 141, [1,1'-Biphenyl]-4-butanoic acid, 4'-[(3,3-dimethyl-1-oxobutyl)amino]-γ-oxo-α-(2-phenylethyl)-], the IC50 on MMP-2 was 1.17 µM; at MMP-3 it was less than 5 µM. At 5 µM the inhibition at MMP-9 [1] was 0%.
As for `O=C(O)[C@H]1[C@H](CN2C(=O)c3cccc([N+](=O)[O-])c3C2=O)CC[C@@H]1C(=O)c1ccc(-c2ccc(Cl)cc2)cc1` (relative stereo) [Example 385, Cyclopentanecarboxylic acid, 2-[(4'-chloro[1,1'-biphenyl]-4-yl)carbonyl]-5-[(1,3-dihydro-4-nitro-1,3-dioxo-2H-isoindol-2-yl)methyl]-, (1α,2β,5β)-], the IC50 on MMP-2 turned out to be 0.00426 µM; on MMP-9 [1], 0.00112 µM; on MMP-3, 0.00422 µM.
The matching figures for `COC/C=C\c1ccc(-c2ccc(C(=O)CC(CCCc3ccccc3)C(=O)O)cc2)cc1` (stereo not drawn) [Example 354, [1,1'-Biphenyl]-4-butanoic acid, 4'-(3-methoxy-1-propenyl)-γ-oxo-α-(3-phenylpropyl)-, (Z)-]: 0.076 µM, 1.71 µM and 0.577 µM.
The matching figures for `O=C(CC(CSc1ccccc1)C(=O)O)c1ccc(-c2ccc(O)cc2)cc1` (stereo not drawn) [Example 444, [1,1'-Biphenyl]-4-butanoic acid, 4'-hydroxy-γ-oxo-α-[(phenylthio)methyl]-]: 0.043 µM, less than 5 µM and less than 5 µM.
For `O=C(c1ccc(-c2ccc(Cl)cc2)cc1)[C@H]1CCN(C(=O)Nc2ccccc2)[C@@H]1C(=O)O` [Example 173, L-Proline, 3-[(4'-chloro[1,1'-biphenyl]-4-yl)carbonyl]-1-[(phenylamino)carbonyl]-, trans-], in that order: 0.104 µM, 0.814 µM and 0.119 µM.
With `CCCCCSc1ccc(-c2ccc(C(=O)CC(CCCc3ccccc3)C(=O)O)cc2)cc1` (stereo not drawn) [Example 72, [1,1'-Biphenyl]-4-butanoic acid, γ-oxo-4'-(pentylthio)-α-(3-phenylpropyl)-], the results for the IC50 on MMP-2 and on MMP-3 were 0.09 µM and 0.409 µM, respectively. Besides, at 5 µM the inhibition against MMP-9 [1] was 22%.
Consider `O=C(O)[C@H]1[C@@H](Sc2ccccc2)CC[C@@H]1C(=O)c1ccc(-c2ccc(Cl)cc2)cc1` (relative stereo) [Example 313, Cyclopentanecarboxylic acid, 2-[(4'-chloro[1,1'-biphenyl]-4-yl)carbonyl]-5-(phenylthio)-, (1α,2β,5α)-], for which the IC50 on MMP-2 was 2.78 µM; against MMP-3 it was 3.33 µM. This compound also registered an inhibition at 5 µM against MMP-9 [1] of 20%.
With `COC(=O)c1ccccc1C(=O)OC[C@@H]1CC[C@H](C(=O)c2ccc(-c3ccc(Cl)cc3)cc2)[C@H]1C(=O)O` (relative stereo) [Example 368], the values for the IC50 at MMP-2, at MMP-9 [1] and on MMP-3 were 0.031 µM, 0.03 µM and 0.036 µM, respectively.
As to `CCN(CC)C(=O)c1cccc(SCC(CC(=O)c2ccc(-c3ccc(Cl)cc3)cc2)C(=O)O)c1` (stereo not drawn) [Example 435, [1,1'-Biphenyl]-4-butanoic acid, 4'-chloro-α-[[[3-[(diethylamino)carbonyl]phenyl]thio]methyl]-γ-oxo-], the IC50 on MMP-2 came out at 0.0081 µM; against MMP-9 [1], 0.107 µM; on MMP-3, 0.039 µM.
On to `O=C(CC(CCN1C(=O)[C@H]2CC=CC[C@H]2C1=O)C(=O)O)c1ccc(-c2ccc(Cl)cc2)cc1` (relative stereo) [Example 413, 2H-Isoindole-2-butanoic acid, α-[2-(4'-chloro[1,1'-biphenyl]-4-yl)-2-oxoethyl]-1,3,3a,4,7,7a-hexahydro-1,3-dioxo-, cis-], for which the IC50 against MMP-9 [1] was determined as 0.109 µM; against MMP-3 it was 0.039 µM.
Turning to `O=C(CC(CSc1ccccc1)C(=O)O)c1ccc(-c2ccc(Cl)cc2)cc1` (centres unmarked) [Example 196, 4-[4-(4-chlorophenyl)phenyl]-4-oxo-2-(phenylthiomethyl)butanoic acid], the results for the IC50 on MMP-9 [2], on MMP-2 and against MMP-9 [1] were 0.438 µM, 0.037 µM and 0.955 µM, respectively.
